Results: patent US20230270114A1, “FUNGICIDAL COMPOSITIONS” (SYNGENTA CROP PROTECTION AG, priority 2020, published 2023)
Like-named read-outs stand apart in the source and are kept apart here.

Tests used:
[1] = test system: Glomerella lagenarium (Colletotrichum lagenarium); test: Example A3: Glomerella lagenarium (Colletotrichum lagenarium) / liquid culture (anthracnose); type: cell-based; conditions: Colletotrichum orbiculare; read-out: control of Glomerella lagenarium
[2] = test system: Magnaporthe grisea (Pyricularia oryzae); test: whole plant or invertebrate; type: in vivo; conditions: foliar, read-out: control of Magnaporthe grisea
[3] = test system: Puccinia recondita f. sp. tritici; type: in vivo; conditions: foliar, wheat leaf disc preventative, inoculated 1 day after application, compared to untreated control
[4] = test system: Phakopsora pachyrhizi; test: Example A8: Phakopsora pachyrhizi / soybean / preventative (soybean rust); type: in vivo; conditions: foliar, soybean leaf disks preventative, inoculated one day after application, compared to untreated control
[5] = test system: Monographella nivalis (Microdochium nivale); test: Example A6: Monographella nivalis (Microdochium nivale) / liquid culture (foot rot cereals); type: cell-based; conditions: read-out: control of Monographella nivalis
[6] = test system: Mycosphaerella graminicola (Septoria tritici); test: Example A14: Mycosphaerella graminicola (Septoria tritici) / liquid culture (Septoria blotch); type: cell-based; conditions: Zymoseptoria tritici; read-out: control of Mycosphaerella graminicola
[7] = test system: Puccinia recondita f. sp. tritici; type: in vivo; conditions: foliar, 24 h, wheat leaf disc curative, applied 1 day after inoculation, compared to untreated control
[8] = test system: Pyrenophora teres; test: Example A12: Pyrenophora teres / barley / leaf disc preventative (net blotch); type: in vivo; conditions: foliar, inoculated 2 days after application, compared to untreated control
[9] = test system: Alternaria solani; test: Example A1: Alternaria solani / tomato / leaf disc (early blight); type: in vivo; conditions: foliar, tomato leaf disks inoculated 2 days after application, compared to untreated control
[10] = test system: Botryotinia fuckeliana (Botrytis cinerea); test: Example A2: Botryotinia fuckeliana (Botrytis cinerea) / liquid culture (gray mould); type: cell-based; conditions: read-out: control of Botryotinia fuckeliana
Description: Example A2: Botryotinia Fuckeliana (Botrytis Cinerea) / Liquid Culture (Gray Mould) Conidia of the fungus from cryogenic storage are directly mixed into nutrient broth (Vogels broth). […] […].38.

[11] = test system: Mycosphaerella arachidis (Cercospora arachidicola); test: Example A7: Mycosphaerella arachidis (Cercospora arachidicola) / liquid culture (early leaf spot); type: cell-based; conditions: read-out: control of Mycosphaerella arachidis

## COCC(=O)N(c1cc(F)nc(F)c1)c1nc(C(=O)NC2CCC2(C)C)c(C)s1 (centres unmarked) [X.29, 2-[(2,6-difluoro-4-pyridyl)-(2-methoxyacetyl)amino]-N-(2,2-dimethylcyclobutyl)-5-methyl-thiazole-4-carboxamide]
[1]
  inhibition of growth at 20 ppm: ≥ 80%
[2]
  pest or weed control at 200 ppm: ≥ 80%
[3]
  pest or weed control at 200 ppm: ≥ 80%
[4]
  pest or weed control at 200 ppm: ≥ 80%
[5]
  inhibition of growth at 20 ppm: ≥ 80%
[6]
  inhibition of growth at 20 ppm: ≥ 80%
[7]
  pest or weed control at 200 ppm: ≥ 80%
[8]
  pest or weed control at 200 ppm: ≥ 80%
[9]
  pest or weed control at 200 ppm: ≥ 80%
[10]
  inhibition of growth at 20 ppm: ≥ 70%
[11]
  inhibition of growth at 20 ppm: ≥ 80%

## CCOCC(=O)N(c1cc(F)nc(F)c1)c1nc(C(=O)NC2CCC2(C)C)c(C)s1 (centres unmarked) [X.15, 2-[(2,6-difluoro-4-pyridyl)-(2-ethoxyacetyl)amino]-N-(2,2-dimethylcyclobutyl)-5-methyl-thiazole-4-carboxamide]
[1]
  inhibition of growth at 20 ppm: ≥ 80%
[2]
  pest or weed control at 200 ppm: ≥ 80%
[3]
  pest or weed control at 200 ppm: ≥ 80%
[4]
  pest or weed control at 200 ppm: ≥ 80%
[5]
  inhibition of growth at 20 ppm: ≥ 80%
[6]
  inhibition of growth at 20 ppm: ≥ 80%
[7]
  pest or weed control at 200 ppm: ≥ 80%
[8]
  pest or weed control at 200 ppm: ≥ 80%
[9]
  pest or weed control at 200 ppm: ≥ 80%
[10]
  inhibition of growth at 20 ppm: ≥ 70%

## Cc1sc(N(C(=O)C(C)C)c2cc(F)nc(F)c2)nc1C(=O)NC1CCC1(C)C (centres unmarked) [X.38, 2-[(2,6-difluoro-4-pyridyl)-(2-methylpropanoyl)amino]-N-(2,2-dimethylcyclobutyl)-5-methyl-thiazole-4-carboxamide]
[1]
  inhibition of growth at 20 ppm: ≥ 80%
[2]
  pest or weed control at 200 ppm: ≥ 80%
[3]
  pest or weed control at 200 ppm: ≥ 80%
[4]
  pest or weed control at 200 ppm: ≥ 80%
[5]
  inhibition of growth at 20 ppm: ≥ 80%
[7]
  pest or weed control at 200 ppm: ≥ 80%
[8]
  pest or weed control at 200 ppm: ≥ 80%
[9]
  pest or weed control at 200 ppm: ≥ 80%
[10]
  inhibition of growth at 20 ppm: ≥ 70%
other
  melting point: 123 to 126 °C

## Cc1sc(N(C(=O)COCc2ccccc2)c2cc(F)nc(F)c2)nc1C(=O)NC1CCC1(C)C (centres unmarked) [X.14, 2-[(2-benzyloxyacetyl)-(2,6-difluoro-4-pyridyl)amino]-N-(2,2-dimethylcyclobutyl)-5-methyl-thiazole-4-carboxamide]
[1]
  inhibition of growth at 20 ppm: ≥ 80%
[2]
  pest or weed control at 200 ppm: ≥ 80%
[3]
  pest or weed control at 200 ppm: ≥ 80%
[4]
  pest or weed control at 200 ppm: ≥ 80%
[5]
  inhibition of growth at 20 ppm: ≥ 80%
[6]
  inhibition of growth at 20 ppm: ≥ 80%
[7]
  pest or weed control at 200 ppm: ≥ 80%
[8]
  pest or weed control at 200 ppm: ≥ 80%
[9]
  pest or weed control at 200 ppm: ≥ 80%
[10]
  inhibition of growth at 20 ppm: ≥ 70%

## Cc1sc(N(C(=O)c2ccccc2)c2cc(F)nc(F)c2)nc1C(=O)NC1CCC1(C)C (centres unmarked) [X.35, 2-[benzoyl-(2,6-difluoro-4-pyridyl)amino]-N-(2,2-dimethylcyclobutyl)-5-methylthiazole-4-carboxamide]
[1]
  inhibition of growth at 20 ppm: ≥ 80%
[2]
  pest or weed control at 200 ppm: ≥ 80%
[3]
  pest or weed control at 200 ppm: ≥ 80%
[4]
  pest or weed control at 200 ppm: ≥ 80%
[5]
  inhibition of growth at 20 ppm: ≥ 80%
[8]
  pest or weed control at 200 ppm: ≥ 80%
[9]
  pest or weed control at 200 ppm: ≥ 80%
[10]
  inhibition of growth at 20 ppm: ≥ 70%

## CCOC(=O)C(=O)N(c1cc(F)nc(F)c1)c1nc(C(=O)NC2CCC2(C)C)c(C)s1 (centres unmarked) [X.34, ethyl 2-[(2,6-difluoro-4-pyridyl)-[4-[(2,2-dimethylcyclobutyl)carbamoyl]-5-methyl-thiazol-2-yl]amino]-2-oxo-acetate]
[1]
  inhibition of growth at 20 ppm: ≥ 80%
[2]
  pest or weed control at 200 ppm: ≥ 80%
[3]
  pest or weed control at 200 ppm: ≥ 80%
[4]
  pest or weed control at 200 ppm: ≥ 80%
[5]
  inhibition of growth at 20 ppm: ≥ 80%
[6]
  inhibition of growth at 20 ppm: ≥ 80%
[7]
  pest or weed control at 200 ppm: ≥ 80%
[8]
  pest or weed control at 200 ppm: ≥ 80%
[9]
  pest or weed control at 200 ppm: ≥ 80%
[10]
  inhibition of growth at 20 ppm: ≥ 70%
[11]
  inhibition of growth at 20 ppm: ≥ 80%

## Cc1sc(N(C=O)c2cc(F)nc(F)c2)nc1C(=O)NC1CCC1(C)C (centres unmarked) [X.33, 2-[(2,6-difluoro-4-pyridyl)-formyl-amino]-N-(2,2-dimethylcyclobutyl)-5-methylthiazole-4-carboxamide]
[1]
  inhibition of growth at 20 ppm: ≥ 80%
[2]
  pest or weed control at 200 ppm: ≥ 80%
[3]
  pest or weed control at 200 ppm: ≥ 80%
[4]
  pest or weed control at 200 ppm: ≥ 80%
[5]
  inhibition of growth at 20 ppm: ≥ 80%
[6]
  inhibition of growth at 20 ppm: ≥ 80%
[7]
  pest or weed control at 200 ppm: ≥ 80%
[8]
  pest or weed control at 200 ppm: ≥ 80%
[9]
  pest or weed control at 200 ppm: ≥ 80%
[10]
  inhibition of growth at 20 ppm: ≥ 70%
[11]
  inhibition of growth at 20 ppm: ≥ 80%
